The subject of the assay is HeLa-CASP2/CASP3/GSDMD TKO + CASP2 cells (human caspase-2). Put plainly: ATP-based cell viability (CellTiter-Glo) in HeLa TKO cells with exogenous caspase-2 expression. Particulars: immunoblotting, HUHS015-treated cells. The source says: Specific chemical compounds are powerful tools for dissecting target-related signaling mechanisms in biological contexts ([Beck et al., 2022]; [Zhang et al., 2012]). Prompted by this notion and possibly to identify a compound that could activate the PIDDosome, we designed a cell death-based high-throughput chemical screen in HeLa cells, in which a triple knockout of CASP2, CASP3, and GSDMD were constructed. CASP3 and GSDMD deficiency served as the background to minimize compound-induced nonspecific cytotoxicity and undesired pyroptosis. Using the triple knockout cells as the control, additional expression of exogenous caspase-2 allows the identification of compounds that can specifically activate the caspase-2-BID pathway and trigger apoptosis through caspase-7. […] In accordance with the apoptosis induction, HUHS015 induced evident processing of caspase-2 expressed in the triple-knockout cells (Fig. 3B). This indicated activation of caspase-2 as the protease-deficient C320A mutant of caspase-2 was not processed upon HUHS015 treatment (Fig. 3B). Accordingly, expression of caspase-2 C320A rendered no cell death in response to HUHS015 treatment (Fig. 3B).
Figure 3. Chemical screen identifies HUHS015 as an agonist of human caspase-2. (A) Screen raw data and selectivity analyses of the compound plate containing HUHS015. The ATP-based viability data of both HeLa-CASP2^−/−CASP3^−/−GSDMD^−/− (TKO) (control group) and TKO cells with exogenous caspase-2 expression (experimental group) are shown. The ratios of the cell viability between the two groups are calculated with 3 as a cutoff for positive compound hit selection. (B) HUHS015-induced cell death depends on caspase-2 activity. HeLa TKO cells expressing WT or enzymatically deficient C320A mutant of caspase-2 were treated with HUHS015. ATP-based cell viability and immunoblotting of caspase-2 cleavage are shown. (C and F) The structures and potencies of HUHS15 (C) and its optimized derivative HUHS15-036 (F). HeLa TKO cells with exogenous caspase-2 expression were treated with titrated compounds. The ATP-based viability data were plotted with compound concentration for EC50 calculation. (D) BID is required for HUHS15-induced caspase-2-dependent cell death. […] Processing of caspase-2, -3, and -7 was analyzed by immunoblotting. […] ATP-based cell viability in panels (B and D) is expressed as mean ± s.d. from three technical replicates. […]
Cell viability was measured by the ATP assay using the CellTiter-Glo® Luminescent Cell Viability Assay kit (Promega).
Drug-related Screening Library (25 × 384-well plate, more than 7,000 compounds) was used for the chemical screen in the TKO HeLa cells rescued with exogenous caspase-2 expression. […] After treatment for 12 h, the cell viability was measured by the ATP assay. […]
On the technique in general: In ATP-based viability assays light output follows the ATP content of the culture.

zVAD [reference compound]: the “block of HUHS015-induced caspase-2 processing” value is recorded as “not blocked”.

(Values after paper PMC11637483, “Dissecting caspase-2-mediated cell death: from intrinsic PIDDosome activation to chemical modulation” (Protein & Cell, 2024).)
